Measured values as given in patent US20090105305A1, “Therapeutic Agents - 550” (AstraZeneca AB, priority 2006, published 2009).

Target: T1, human Fatty Acid Synthase (Homo sapiens, UniProt P49327)
T1 construct: made in house
Experiment: Human FAS enzyme assay (decrease in NADPH fluorescence)
Type: biochemical
Conditions: % inhibition at a concentration of 100 micromolar
Procedure, shortened: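 In-house human FAS (0.4 μg) was preincubated 15 min at RT with compound and NADPH (added at 166.6 μM) in 0.1 M Tris pH 7.5, 1 mM glutathione, 0.05% BSA. Malonyl-/acetyl-CoA (500/150 μM in substrate mix) was then added for 60 min. Readout was NADPH fluorescence loss (ex 340/em 460) over a time-zero read, with IC50 from a sigmoid fit.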

T1 sequence (P49327 whole entry): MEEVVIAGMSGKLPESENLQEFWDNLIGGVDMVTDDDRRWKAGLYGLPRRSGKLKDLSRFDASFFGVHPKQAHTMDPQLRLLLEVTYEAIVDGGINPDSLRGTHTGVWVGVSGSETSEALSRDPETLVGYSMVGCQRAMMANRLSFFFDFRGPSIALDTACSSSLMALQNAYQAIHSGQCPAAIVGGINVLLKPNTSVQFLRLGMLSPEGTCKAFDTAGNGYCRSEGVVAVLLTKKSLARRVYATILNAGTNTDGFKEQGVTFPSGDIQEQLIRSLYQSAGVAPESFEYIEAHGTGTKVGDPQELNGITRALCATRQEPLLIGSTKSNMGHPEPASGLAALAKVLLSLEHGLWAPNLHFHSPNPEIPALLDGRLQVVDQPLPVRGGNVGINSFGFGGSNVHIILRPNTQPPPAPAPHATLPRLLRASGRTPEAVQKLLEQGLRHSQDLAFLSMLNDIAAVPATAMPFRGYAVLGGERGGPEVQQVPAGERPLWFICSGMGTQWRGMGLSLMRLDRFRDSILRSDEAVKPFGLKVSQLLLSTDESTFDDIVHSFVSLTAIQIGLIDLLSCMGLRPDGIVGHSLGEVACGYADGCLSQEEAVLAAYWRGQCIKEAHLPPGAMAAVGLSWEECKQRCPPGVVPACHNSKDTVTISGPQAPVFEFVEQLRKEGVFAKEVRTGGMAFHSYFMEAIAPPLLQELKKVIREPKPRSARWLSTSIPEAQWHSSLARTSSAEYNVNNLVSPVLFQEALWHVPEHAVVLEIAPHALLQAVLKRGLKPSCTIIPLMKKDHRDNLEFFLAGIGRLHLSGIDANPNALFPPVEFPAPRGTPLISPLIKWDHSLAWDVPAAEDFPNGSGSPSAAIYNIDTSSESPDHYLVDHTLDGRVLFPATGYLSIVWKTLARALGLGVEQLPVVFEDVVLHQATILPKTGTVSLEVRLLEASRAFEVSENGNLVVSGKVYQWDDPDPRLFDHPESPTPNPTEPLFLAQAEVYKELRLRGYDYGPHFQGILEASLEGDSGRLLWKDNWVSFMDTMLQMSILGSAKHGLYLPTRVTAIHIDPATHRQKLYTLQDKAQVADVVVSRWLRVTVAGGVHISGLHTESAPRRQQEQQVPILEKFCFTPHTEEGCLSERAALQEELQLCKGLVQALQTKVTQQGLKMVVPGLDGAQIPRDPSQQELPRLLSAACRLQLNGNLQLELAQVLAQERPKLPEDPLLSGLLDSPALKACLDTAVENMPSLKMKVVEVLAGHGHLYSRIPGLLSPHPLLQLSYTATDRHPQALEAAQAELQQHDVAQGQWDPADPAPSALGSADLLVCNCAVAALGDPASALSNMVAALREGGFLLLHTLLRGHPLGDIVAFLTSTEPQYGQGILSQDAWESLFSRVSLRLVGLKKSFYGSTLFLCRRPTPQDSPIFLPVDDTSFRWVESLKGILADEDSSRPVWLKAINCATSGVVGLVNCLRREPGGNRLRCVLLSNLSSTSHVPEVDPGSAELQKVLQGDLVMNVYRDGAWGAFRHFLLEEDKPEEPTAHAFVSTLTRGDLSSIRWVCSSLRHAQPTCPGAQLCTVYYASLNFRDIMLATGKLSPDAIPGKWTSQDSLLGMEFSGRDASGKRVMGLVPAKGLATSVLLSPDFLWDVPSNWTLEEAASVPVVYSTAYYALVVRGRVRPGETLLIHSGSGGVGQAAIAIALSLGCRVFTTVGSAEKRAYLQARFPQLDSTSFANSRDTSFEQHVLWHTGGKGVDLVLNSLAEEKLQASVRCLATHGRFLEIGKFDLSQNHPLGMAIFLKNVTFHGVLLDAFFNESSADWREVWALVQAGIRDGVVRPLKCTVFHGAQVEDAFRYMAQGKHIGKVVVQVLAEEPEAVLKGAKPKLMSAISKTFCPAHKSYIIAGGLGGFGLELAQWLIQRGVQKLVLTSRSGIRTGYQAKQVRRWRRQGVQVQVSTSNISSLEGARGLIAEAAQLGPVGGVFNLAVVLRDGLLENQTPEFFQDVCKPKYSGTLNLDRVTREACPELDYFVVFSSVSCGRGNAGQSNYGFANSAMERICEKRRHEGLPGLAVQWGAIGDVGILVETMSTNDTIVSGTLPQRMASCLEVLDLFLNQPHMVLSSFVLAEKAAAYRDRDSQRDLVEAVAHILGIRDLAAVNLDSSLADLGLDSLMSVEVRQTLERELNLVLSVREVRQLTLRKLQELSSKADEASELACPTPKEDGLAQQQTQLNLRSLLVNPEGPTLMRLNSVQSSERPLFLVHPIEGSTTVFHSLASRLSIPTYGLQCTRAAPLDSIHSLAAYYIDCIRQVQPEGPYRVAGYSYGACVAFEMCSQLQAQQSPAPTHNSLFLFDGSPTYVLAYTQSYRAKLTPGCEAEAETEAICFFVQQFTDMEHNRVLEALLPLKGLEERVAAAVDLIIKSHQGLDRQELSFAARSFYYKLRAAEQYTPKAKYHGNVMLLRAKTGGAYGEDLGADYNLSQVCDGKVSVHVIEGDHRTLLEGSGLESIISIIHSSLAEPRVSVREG

inhibition at 100 µM [%] | SMILES
87 | Cc1ccc(C(=O)N2CCC(c3ccc(C#N)cc3)CC2)cc1NS(=O)(=O)CCCN [Example 126, 3-amino-N-[5-[4-(4-cyanophenyl)piperidine-1-carbonyl]-2-methyl-phenyl]propane-1-sulfonamide]
92 | Cc1ccc(C(=O)N2CCC(c3ccc(C#N)cc3)CC2)cc1NS(=O)(=O)C1CCS(=O)(=O)C1 (stereo not shown) [Example 127, N-[5-[4-(4-cyanophenyl)piperidine-1-carbonyl]-2-methyl-phenyl]-1,1-dioxo-thiolane-3-sulfonamide]
96 | Cc1ccc(C(=O)N2CCC(c3ccc(C#N)cc3)CC2)cc1NS(=O)(=O)C(C)C [Example 128, N-[5-[4-(4-cyanophenyl)piperidine-1-carbonyl]-2-methyl-phenyl]propane-2-sulfonamide]
95 | Cc1ccc(C(=O)N2CCC(c3ccc(C#N)cc3)CC2)cc1NS(=O)(=O)c1ccc2c(c1)CC(=O)N2 [Example 129, N-[5-[4-(4-cyanophenyl)piperidine-1-carbonyl]-2-methyl-phenyl]-2-oxo-1,3-dihydroindole-5-sulfonamide]
77 | Cc1ccc(C(=O)N2CCC(c3ccc(C#N)cc3)CC2)cc1NS(=O)(=O)CC(=O)O [Example 130, 2-[[5-[4-(4-cyanophenyl)piperidine-1-carbonyl]-2-methyl-phenyl]sulfamoyl]acetic acid]
91 | Cc1ccc(C(=O)N2CCC(c3ccc(C#N)cc3)CC2)cc1NS(=O)(=O)CCCNS(=O)(=O)C(C)C [Example 131, N-[5-[4-(4-cyanophenyl)piperidine-1-carbonyl]-2-methyl-phenyl]-3-(propan-2-ylsulfonylamino)propane-1-sulfonamide]
88 | Cc1ccc(C(=O)N2CCC(c3ccc(C#N)cc3)CC2)cc1NS(=O)(=O)CCCNS(C)(=O)=O [Example 132, N-[5-[4-(4-cyanophenyl)piperidine-1-carbonyl]-2-methyl-phenyl]-3-methanesulfonamido-propane-1-sulfonamide]
91 | Cc1ccc(C(=O)N2CCC(c3ccc(C#N)cc3)CC2)cc1NS(=O)(=O)CCCNC(=O)c1ccccc1 [Example 133, N-[3-[[5-[4-(4-cyanophenyl)piperidine-1-carbonyl]-2-methyl-phenyl]sulfamoyl]propyl]benzamide]
97 | Cc1ccc(C(=O)N2CCC(c3ccc(C#N)cc3)CC2)cc1NS(=O)(=O)CCCN1C(=O)c2ccccc2C1=O [Example 134, N-[5-[4-(4-cyanophenyl)piperidine-1-carbonyl]-2-methyl-phenyl]-3-(1,3-dioxoisoindol-2-yl)propane-1-sulfonamide]
100 | CS(=O)(=O)c1ccc(C(=O)N2CCC(c3ccc(C#N)cc3)CC2)cc1NS(=O)(=O)Cc1ccccc1 [Example 135, N-[5-[4-(4-cyanophenyl)piperidine-1-carbonyl]-2-methylsulfonyl-phenyl]-1-phenyl-methanesulfonamide]
94 | CC(=O)NCCCS(=O)(=O)Nc1cc(C(=O)N2CCC(c3ccc(C#N)cc3)CC2)ccc1C [Example 136, N-[3-[[5-[4-(4-cyanophenyl)piperidine-1-carbonyl]-2-methyl-phenyl]sulfamoyl]propyl]acetamide]
97 | COC(=O)C(C)S(=O)(=O)Nc1cc(C(=O)N2CCC(c3ccc(C#N)cc3)CC2)ccc1C (stereo not shown) [Example 137, Methyl 2-[[5-[4-(4-cyanophenyl)piperidine-1-carbonyl]-2-methyl-phenyl]sulfamoyl]propanoate]
100 | Cc1ccc(C(=O)N2CCC(c3ccc(C#N)cc3)CC2)cc1NS(=O)(=O)C(C)CO (stereo not shown) [Example 138, N-[5-[4-(4-cyanophenyl)piperidine-1-carbonyl]-2-methyl-phenyl]-1-hydroxy-propane-2-sulfonamide]
83 | Cc1ccc(C(=O)N2CCC(c3ccc(C#N)cc3)CC2)cc1NS(=O)(=O)c1cn(C)nc1C [Example 139, N-[5-[4-(4-cyanophenyl)piperidine-1-carbonyl]-2-methyl-phenyl]-1,3-dimethyl-pyrazole-4-sulfonamide]
100 | Cc1ccc(C(=O)N2CCC(c3ccc(C#N)cc3)CC2)cc1NS(=O)(=O)c1ccn(C)n1 [Example 140, N-[5-[4-(4-cyanophenyl)piperidine-1-carbonyl]-2-methyl-phenyl]-1-methyl-pyrazole-3-sulfonamide]
93 | Cc1ccc(C(=O)N2CCC(c3ccc(C#N)cc3)CC2)cc1NS(=O)(=O)CCCNCc1cccnc1 [Example 141, N-[5-[4-(4-cyanophenyl)piperidine-1-carbonyl]-2-methyl-phenyl]-3-(pyridin-3-ylmethylamino)propane-1-sulfonamide]
98 | CCn1ncc(S(=O)(=O)Nc2cc(C(=O)N3CCC(c4ccc(C#N)cc4)CC3)ccc2C)c1C [Example 142, N-[5-[4-(4-cyanophenyl)piperidine-1-carbonyl]-2-methyl-phenyl]-1-ethyl-5-methyl-pyrazole-4-sulfonamide]

Continued, molecule first:

SMILES | inhibition at 100 µM [%]
Cc1ccc(C(=O)N2CCC(c3ccc(C#N)cc3)CC2)cc1NS(=O)(=O)CCO [Example 109, N-[5-[4-(4-cyanophenyl)piperidine-1-carbonyl]-2-methyl-phenyl]-2-hydroxy-ethanesulfonamide] | 94
COCCCS(=O)(=O)Nc1cc(C(=O)N2CCC(c3ccc(C#N)cc3)CC2)ccc1C [Example 110, N-[5-[4-(4-cyanophenyl)piperidine-1-carbonyl]-2-methyl-phenyl]-3-methoxy-propane-1-sulfonamide] | 86
Cc1ccc(C(=O)N2CCC(c3ccc(C#N)cc3)CC2)cc1NS(=O)(=O)c1ccccc1C(=O)N1CCOCC1 [Example 111, N-[5-[4-(4-cyanophenyl)piperidine-1-carbonyl]-2-methyl-phenyl]-2-(morpholine-4-carbonyl)benzenesulfonamide] | 80
Cc1ccc(C(=O)N2CCC(c3ccc(C(N)=O)cc3)CC2)cc1NS(C)(=O)=O [Example 112, 4-[1-(3-methanesulfonamido-4-methyl-benzoyl)-4-piperidyl]benzamide] | 79
Cc1ccc(C(=O)N2CCC(c3ccc(C#N)cc3)CC2)cc1NS(=O)(=O)c1ccccc1C(N)=O [Example 113, 2-[[5-[4-(4-cyanophenyl)piperidine-1-carbonyl]-2-methyl-phenyl]sulfamoyl]benzamide] | 77
Cc1ccc(C(=O)N2CCC(c3ccc(C#N)cc3)CC2)cc1NS(=O)(=O)c1cnc(C)n1C [Example 114, N-[5-[4-(4-cyanophenyl)piperidine-1-carbonyl]-2-methyl-phenyl]-2,3-dimethyl-imidazole-4-sulfonamide] | 85
Cc1ccc(C(=O)N2CCC(c3ccc(C#N)cc3)CC2)cc1NS(=O)(=O)C1CCNCC1 [Example 115, N-[5-[4-(4-cyanophenyl)piperidine-1-carbonyl]-2-methyl-phenyl]piperidine-4-sulfonamide] | 97
Cc1cc(C)c(C(=O)N2CCC(c3ccc(C#N)cc3)CC2)cc1NS(=O)(=O)C1CC1 [Example 116, N-[5-[4-(4-cyanophenyl)piperidine-1-carbonyl]-2,4-dimethyl-phenyl]cyclopropanesulfonamide] | 92
CCCS(=O)(=O)Nc1cc(C(=O)N2CCC(c3ccc(C#N)cc3)CC2)c(C)cc1C [Example 117, N-[5-[4-(4-cyanophenyl)piperidine-1-carbonyl]-2,4-dimethyl-phenyl]propane-1-sulfonamide] | 98
CC(=O)N1CCC(S(=O)(=O)Nc2cc(C(=O)N3CCC(c4ccc(C#N)cc4)CC3)ccc2C)CC1 [Example 118, 1-acetyl-N-[5-[4-(4-cyanophenyl)piperidine-1-carbonyl]-2-methyl-phenyl]piperidine-4-sulfonamide] | 85
Cc1ccc(C(=O)N2CCC(c3ccc(C#N)cc3)CC2)cc1NS(=O)(=O)C1CCN(S(=O)(=O)C(C)C)CC1 [Example 119, N-[5-[4-(4-cyanophenyl)piperidine-1-carbonyl]-2-methyl-phenyl]-1-propan-2-ylsulfonyl-piperidine-4-sulfonamide] | 94
Cc1ccc(C(=O)N2CCC(c3ccc(C#N)cc3)CC2)cc1NS(=O)(=O)C1CCN(C(C)C)CC1 [Example 120, N-[5-[4-(4-cyanophenyl)piperidine-1-carbonyl]-2-methyl-phenyl]-1-propan-2-yl-piperidine-4-sulfonamide] | 94
Cc1ccc(C(=O)N2CCC(c3ccc(C#N)cc3)CC2)cc1NS(=O)(=O)C1CCN(S(C)(=O)=O)CC1 [Example 121, N-[5-[4-(4-cyanophenyl)piperidine-1-carbonyl]-2-methyl-phenyl]-1-methylsulfonyl-piperidine-4-sulfonamide] | 89
CCS(=O)(=O)N1CCC(S(=O)(=O)Nc2cc(C(=O)N3CCC(c4ccc(C#N)cc4)CC3)ccc2C)CC1 [Example 122, N-[5-[4-(4-cyanophenyl)piperidine-1-carbonyl]-2-methyl-phenyl]-1-ethylsulfonyl-piperidine-4-sulfonamide] | 98
CCc1ccc(C(=O)N2CCC(c3ccc(C#N)cc3)CC2)cc1NS(C)(=O)=O [Example 123, N-[5-[4-(4-cyanophenyl)piperidine-1-carbonyl]-2-ethyl-phenyl]methanesulfonamide] | 85
CCc1ccc(C(=O)N2CCC(c3ccc(C#N)cc3)CC2)cc1NS(=O)(=O)C1CCS(=O)(=O)C1 (stereo not shown) [Example 124, N-[5-[4-(4-cyanophenyl)piperidine-1-carbonyl]-2-ethyl-phenyl]-1,1-dioxo-thiolane-3-sulfonamide] | 82
Cc1ccc(C(=O)N2CCC(c3ccc(C#N)cc3)CC2)cc1NS(=O)(=O)C1CCN(C)CC1 [Example 125, N-[5-[4-(4-cyanophenyl)piperidine-1-carbonyl]-2-methyl-phenyl]-1-methyl-piperidine-4-sulfonamide] | 98
